Read-outs that look alike come from different tables or passages of the source.
Assays:
[1] = target: T1, Tyrosinase (Agaricus bisporus, UniProt C7FF04); test: Tyrosinase assay (inhibitory activity, L-tyrosine substrate, product detected at 475 nm); type: biochemical; parameters: purchased Sigma–Aldrich T3824; conditions: for Inhibitory Ratio at 50 μM: 50 μM compound
Procedure: (§1) To assess the inhibitory effect of compounds on tyrosinase, 130 μL tyrosinase in 0.05 mM phosphate buffer (pH 6.8) was aliquoted into 96-well plates, and 20 μL of each compound at concentrations ranging from 0.5 to 0.0075 mM was added. Next, 50 μL 1.2 mM L-tyrosine in phosphate buffer was diluted to calculate the inhibitory activity. Finally, 50 μL 10–0.62 mM l-tyrosine in buffer was added to analyze the initial velocity (v0). Twenty minutes after starting the reaction, the amount of product was detected at 475 nm. The inhibitory activity was calculated using the following equation: Inhibitory activity rate (%) = [(ΔC − ΔS)/ΔC] × 100, where C and S are the intensity of control and inhibitor after 20 min, respectively.
Target sequence in this assay (C7FF04 1-392 limits assumed): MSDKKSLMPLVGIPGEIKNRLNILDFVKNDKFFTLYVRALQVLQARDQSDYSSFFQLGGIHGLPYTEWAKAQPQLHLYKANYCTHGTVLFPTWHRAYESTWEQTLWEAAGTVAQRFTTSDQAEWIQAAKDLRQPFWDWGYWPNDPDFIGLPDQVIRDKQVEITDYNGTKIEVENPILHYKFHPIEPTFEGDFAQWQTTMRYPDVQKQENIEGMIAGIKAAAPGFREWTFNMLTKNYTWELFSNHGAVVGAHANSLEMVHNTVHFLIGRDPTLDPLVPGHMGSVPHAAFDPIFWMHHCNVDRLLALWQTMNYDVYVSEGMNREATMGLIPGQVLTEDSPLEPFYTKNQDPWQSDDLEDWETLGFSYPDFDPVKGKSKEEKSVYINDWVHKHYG

[2] = target: T1, Tyrosinase; test: Enzyme kinetics on tyrosinase (Lineweaver–Burk and Dixon plots); type: biochemical; conditions: various substrate concentrations
Procedure: The v0 was calculated at ~10% of the substrate conversion rate by tyrosinase. The results are shown as Lineweaver–Burk plots (Figure 2A–C and Table 1).
as §1
Target sequence in this assay (C7FF04 2-392): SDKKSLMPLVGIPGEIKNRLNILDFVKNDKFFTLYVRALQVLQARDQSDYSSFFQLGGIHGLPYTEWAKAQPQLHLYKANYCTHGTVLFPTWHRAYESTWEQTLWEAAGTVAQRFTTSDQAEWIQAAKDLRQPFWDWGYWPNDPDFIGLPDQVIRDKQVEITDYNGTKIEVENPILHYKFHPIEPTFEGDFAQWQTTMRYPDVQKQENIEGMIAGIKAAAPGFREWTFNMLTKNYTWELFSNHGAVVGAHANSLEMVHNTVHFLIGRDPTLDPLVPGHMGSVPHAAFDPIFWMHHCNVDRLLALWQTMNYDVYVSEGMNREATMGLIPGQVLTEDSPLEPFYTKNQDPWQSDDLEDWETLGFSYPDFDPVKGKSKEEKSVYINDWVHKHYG

[3] = Mean ± SEM, tested three times, read-out: IC50

| Compound | Inhibitory activity on tyrosinase (in words) [1] | Binding Mode [2] | Inhibitory Ratio at 50 μM ([1]; tested three times) [%] | IC50 [1, 3] [µM] | IC50 [1] [µM] |
| --- | --- | --- | --- | --- | --- |
| Oc1cc(O)c2ccc(-c3ccc(O)c(O)c3)[o+]c2c1 [Compound 1, luteolinidin] | most potent inhibitors | Competitive inhibitor | – | – | 3.7 ± 0.8 |
| COc1cc(-c2[o+]c3cc(O)cc(O)c3cc2O[C@@H]2O[C@H](CO)[C@@H](O)[C@H](O)[C@H]2O)cc(O)c1O [Compound 2, petunidin 3-O-glucoside] | most potent inhibitors | Competitive inhibitor | 69.2 ± 1.0 | 10.3 ± 1 | – |
| OC[C@H]1O[C@@H](Oc2cc3c(O)cc(O)cc3[o+]c2-c2cc(O)c(O)c(O)c2)[C@H](O)[C@@H](O)[C@H]1O [Compound 3, delphinidin 3-O-galactoside] | moderate inhibitory activity | Competitive inhibitor | 55.2 ± 0.9 | 41.3 ± 3.2 | – |
| OC[C@H]1O[C@@H](Oc2cc3c(O)cc(O)cc3[o+]c2-c2ccc(O)c(O)c2)[C@H](O)[C@@H](O)[C@@H]1O [Compound 4, kuromanin (cyanidin 3-O-glucoside)] | – | – | −1.9 ± 40.0 | – | – |

More lines, main results first:

| Inhibitory activity on tyrosinase (in words) [1] | Binding Mode [2] | Inhibitory Ratio at 50 μM ([1]; tested three times) [%] | IC50 [1, 3] [µM] | Compound | IC50 [1] [µM] |
| --- | --- | --- | --- | --- | --- |
| – | – | 47.5 ± 3.2 | – | OC[C@H]1O[C@@H](Oc2cc3c(O)cc(O)cc3[o+]c2-c2cc(O)c(O)c(O)c2)[C@H](O)[C@@H](O)[C@@H]1O [Compound 5, delphinidin 3-O-glucoside] | – |
| – | – | 6.5 ± 2.1 | – | OC[C@H]1O[C@@H](Oc2cc3c(O)cc(O)cc3[o+]c2-c2ccc(O)cc2)[C@H](O)[C@@H](O)[C@@H]1O [Compound 6, callistephin (pelargonidin 3-O-glucoside)] | – |

Source: article PMC9458148 (Molecules, 2022)
